Measured values taken from ChEMBL document CHEMBL1143001, “Designing active template molecules by combining computational de novo design and human chemist's expertise” (J Med Chem, 2007).
Activity calls are given as the source filed them. The calls are words filed in the database; no cut-off is given here.

What was measured:
Bos taurus [1] = organism: Bos taurus; test: Inhibition of bovine PDE1 at 10 uM
[2] = target: cGMP-specific 3',5'-cyclic phosphodiesterase (Homo sapiens) (UniProt O76074); test: Inhibition of PDE5 in human platelet cells at 10 uM; type: cell-based
[3] = target: Sodium-dependent noradrenaline transporter (Homo sapiens) (UniProt P23975); test: Displacement of radiolabeled protriptyline from human recombinant NET expressed in CHO cells at 10 uM; type: cell-based
[4] = target: Acetylcholinesterase (Homo sapiens) (UniProt P22303); test: Inhibition of human recombinant AChE expressed in HEK293 cells at 10 uM; type: cell-based
Rattus norvegicus [5] = organism: Rattus norvegicus; test: Inhibition of rat striatum tyrosine hydroxylase at 10 uM; type: tissue-based
[6] = target: T1, Phenylethanolamine N-methyltransferase (Bos taurus) (UniProt P10938); test: Inhibition of bovine adrenal medulla phenylethanolamine-N-methyl transferase at 10 uM; type: tissue-based
T1 sequence (whole entry): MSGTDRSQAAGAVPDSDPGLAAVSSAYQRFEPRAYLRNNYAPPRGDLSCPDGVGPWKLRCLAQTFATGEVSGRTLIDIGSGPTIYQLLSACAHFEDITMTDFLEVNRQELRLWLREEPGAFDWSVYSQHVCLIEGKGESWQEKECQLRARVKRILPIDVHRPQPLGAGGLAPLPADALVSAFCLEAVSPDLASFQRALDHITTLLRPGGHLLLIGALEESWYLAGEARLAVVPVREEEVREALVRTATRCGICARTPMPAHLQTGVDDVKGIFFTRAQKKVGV

[7] = tested on: Protein kinase C (Rattus norvegicus); test: Inhibition of rat brain PKC at 10 uM
[8] = target: 4-aminobutyrate aminotransferase, mitochondrial (Rattus norvegicus) (UniProt P50554); test: Inhibition of rat brain GABA transaminase at 10 uM
[9] = target: Phosphodiesterase 4 (Homo sapiens) (UniProt P27815+Q08499+Q07343+Q08493); test: Inhibition of PDE4 expressed in U937 cells at 10 uM; type: cell-based; conditions: U-937
Sus scrofa = organism: Sus scrofa; test: Inhibition of pig liver catechol-O-methyl transferase at 10 uM
[10] = target: Phosphodiesterase 3 (Homo sapiens) (UniProt Q14432+Q13370); test: Inhibition of PDE3 expressed in human platelets at 10 uM
Bos taurus [11] = organism: Bos taurus; test: Inhibition of bovine lung guanylyl cyclase at 10 uM
Rattus norvegicus [12] = organism: Rattus norvegicus; test: Inhibition of rat brain adenylyl cyclase at 10 uM
Canis lupus familiaris = organism: Canis lupus familiaris; test: Inhibition of dog kidney (Na+/K+) ATPase at 10 uM
[13] = target: T2, Amine oxidase [flavin-containing] B (Homo sapiens, UniProt P27338); test: Inhibition of MAOB in human platelets at 10 uM
T2 sequence (P27338 whole entry): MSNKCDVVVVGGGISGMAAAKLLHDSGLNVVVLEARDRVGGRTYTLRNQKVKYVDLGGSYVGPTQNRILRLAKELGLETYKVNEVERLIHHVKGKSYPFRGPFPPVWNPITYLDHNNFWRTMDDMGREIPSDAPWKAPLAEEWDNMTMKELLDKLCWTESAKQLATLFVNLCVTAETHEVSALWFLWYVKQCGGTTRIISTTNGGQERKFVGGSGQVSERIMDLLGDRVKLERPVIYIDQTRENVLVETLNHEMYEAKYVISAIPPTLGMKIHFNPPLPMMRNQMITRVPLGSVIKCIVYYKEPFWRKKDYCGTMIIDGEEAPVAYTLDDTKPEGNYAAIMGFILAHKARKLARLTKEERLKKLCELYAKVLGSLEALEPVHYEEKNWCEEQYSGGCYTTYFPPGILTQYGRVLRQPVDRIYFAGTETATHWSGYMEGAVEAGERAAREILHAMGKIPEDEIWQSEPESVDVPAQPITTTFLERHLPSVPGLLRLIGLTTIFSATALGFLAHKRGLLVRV

[14] = target: cGMP-dependent 3',5'-cyclic phosphodiesterase (Homo sapiens) (UniProt O00408); test: Inhibition of PDE2 expressed in differentiated U937 cells at 10 uM; type: cell-based; conditions: U-937
[15] = target: Muscarinic acetylcholine receptor M5 (Rattus norvegicus) (UniProt P08911); test: Displacement of radiolabeled atropine from rat brain muscarinic M5 receptor at 10 uM
[16] = target: Muscarinic acetylcholine receptor M3 (Rattus norvegicus) (UniProt P08483); test: Displacement of radiolabeled atropine from rat brain muscarinic M3 receptor at 10 uM
[17] = target: Muscarinic acetylcholine receptor M4 (Rattus norvegicus) (UniProt P08485); test: Displacement of radiolabeled atropine from rat brain muscarinic M4 receptor at 10 uM
[18] = target: Muscarinic acetylcholine receptor M2 (Rattus norvegicus) (UniProt P10980); test: Displacement of radiolabeled atropine from rat brain muscarinic M2 receptor at 10 uM
[19] = target: Muscarinic acetylcholine receptor M1 (Rattus norvegicus) (UniProt P08482); test: Displacement of radiolabeled atropine from rat brain muscarinic M1 receptor at 10 uM
[20] = target: Adrenergic receptor alpha-1 (Rattus norvegicus) (UniProt P15823+P23944+P43140); test: Displacement of radiolabeled prazosin from adrenergic alpha1 receptor in rat cerebral cortex; type: tissue-based
Rattus norvegicus [21] = organism: Rattus norvegicus; test: Displacement of radiolabeled naloxone from opiate receptor in rat cerebral cortex; type: tissue-based
[22] = target: Adrenergic receptor alpha-2 (Rattus norvegicus) (UniProt P22086+P19328+P22909); test: Displacement of radiolabeled yohimbine from adrenergic alpha-2 receptor in rat cerebral cortex; type: tissue-based
[23] = target: Serotonin (5-HT) receptor (Rattus norvegicus) (UniProt P35563+P35365+P32305+P31388+Q9JJ16+P28564+P30994+Q62758+P08909+P14842+P30940+P35364+P19327+P28565); test: Displacement of radiolabeled serotonin from 5-HT receptor in rat cerebral cortex; type: tissue-based
Homo sapiens = organism: Homo sapiens; test: Displacement of radiolabeled ligand from nicotinic acetylcholine receptor at 10 uM
[24] = target: Sodium-dependent serotonin transporter (Homo sapiens) (UniProt P31645); test: Displacement of radiolabeled Imipramine from human recombinant 5HT transporter expressed in HEK293 cells at 10 uM; type: cell-based
Rattus norvegicus [25] = organism: Rattus norvegicus; test: Displacement of radiolabeled kainic acid from rat cerebral cortex Kainate receptor at 10 uM; type: tissue-based
[26] = target: Cannabinoid receptor 1 (Homo sapiens) (UniProt P21554); test: Displacement of radiolabeled WIN-55212-2 from human CB1 receptor expressed in HEK293 cells at 10 uM; type: cell-based
[27] = target: Sodium-dependent dopamine transporter (Homo sapiens) (UniProt Q01959); test: Displacement of radiolabeled BTCP from human recombinant DAT expressed in CHO cells at 10 uM; type: cell-based
[28] = target: Substance-P receptor (Homo sapiens) (UniProt P25103); test: Displacement of radiolabeled [Sar9,Met(O2)11]-SP from NK1 receptor expressed in U373MG cells at 10 uM; type: cell-based; conditions: U-373MG ATCC

Acetylcholinesterase (Homo sapiens), sequence (P22303 whole entry): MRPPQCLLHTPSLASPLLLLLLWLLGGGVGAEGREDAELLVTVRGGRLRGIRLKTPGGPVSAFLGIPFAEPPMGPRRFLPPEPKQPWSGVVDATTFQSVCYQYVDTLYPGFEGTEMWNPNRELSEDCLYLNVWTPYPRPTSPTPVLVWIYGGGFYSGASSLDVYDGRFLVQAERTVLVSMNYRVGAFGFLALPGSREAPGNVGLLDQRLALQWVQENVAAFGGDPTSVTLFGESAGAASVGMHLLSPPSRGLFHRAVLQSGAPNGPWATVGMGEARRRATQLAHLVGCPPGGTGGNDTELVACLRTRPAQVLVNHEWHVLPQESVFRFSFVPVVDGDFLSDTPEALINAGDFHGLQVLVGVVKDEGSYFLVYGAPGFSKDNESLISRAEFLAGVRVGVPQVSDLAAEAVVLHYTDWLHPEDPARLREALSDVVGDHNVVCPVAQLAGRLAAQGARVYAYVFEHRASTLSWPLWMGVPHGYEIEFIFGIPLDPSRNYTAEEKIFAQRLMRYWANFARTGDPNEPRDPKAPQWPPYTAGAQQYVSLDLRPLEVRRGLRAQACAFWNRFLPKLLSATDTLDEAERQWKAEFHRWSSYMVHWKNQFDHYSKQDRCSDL
4-aminobutyrate aminotransferase, mitochondrial (Rattus norvegicus), sequence (P50554 28-500 limits assumed): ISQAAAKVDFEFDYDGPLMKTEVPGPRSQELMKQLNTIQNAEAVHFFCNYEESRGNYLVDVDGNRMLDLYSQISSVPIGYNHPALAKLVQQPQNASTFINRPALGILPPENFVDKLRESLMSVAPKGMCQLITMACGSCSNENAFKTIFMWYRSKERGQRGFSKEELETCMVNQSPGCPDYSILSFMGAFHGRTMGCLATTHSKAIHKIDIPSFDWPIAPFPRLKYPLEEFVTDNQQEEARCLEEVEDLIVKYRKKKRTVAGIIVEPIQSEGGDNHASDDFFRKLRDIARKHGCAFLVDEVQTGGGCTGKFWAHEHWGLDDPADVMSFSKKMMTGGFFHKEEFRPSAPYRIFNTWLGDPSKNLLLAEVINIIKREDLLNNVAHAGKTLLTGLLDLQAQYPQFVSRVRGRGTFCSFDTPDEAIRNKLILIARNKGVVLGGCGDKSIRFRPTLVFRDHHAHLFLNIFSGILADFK
cGMP-dependent 3',5'-cyclic phosphodiesterase (Homo sapiens), sequence (O00408 whole entry): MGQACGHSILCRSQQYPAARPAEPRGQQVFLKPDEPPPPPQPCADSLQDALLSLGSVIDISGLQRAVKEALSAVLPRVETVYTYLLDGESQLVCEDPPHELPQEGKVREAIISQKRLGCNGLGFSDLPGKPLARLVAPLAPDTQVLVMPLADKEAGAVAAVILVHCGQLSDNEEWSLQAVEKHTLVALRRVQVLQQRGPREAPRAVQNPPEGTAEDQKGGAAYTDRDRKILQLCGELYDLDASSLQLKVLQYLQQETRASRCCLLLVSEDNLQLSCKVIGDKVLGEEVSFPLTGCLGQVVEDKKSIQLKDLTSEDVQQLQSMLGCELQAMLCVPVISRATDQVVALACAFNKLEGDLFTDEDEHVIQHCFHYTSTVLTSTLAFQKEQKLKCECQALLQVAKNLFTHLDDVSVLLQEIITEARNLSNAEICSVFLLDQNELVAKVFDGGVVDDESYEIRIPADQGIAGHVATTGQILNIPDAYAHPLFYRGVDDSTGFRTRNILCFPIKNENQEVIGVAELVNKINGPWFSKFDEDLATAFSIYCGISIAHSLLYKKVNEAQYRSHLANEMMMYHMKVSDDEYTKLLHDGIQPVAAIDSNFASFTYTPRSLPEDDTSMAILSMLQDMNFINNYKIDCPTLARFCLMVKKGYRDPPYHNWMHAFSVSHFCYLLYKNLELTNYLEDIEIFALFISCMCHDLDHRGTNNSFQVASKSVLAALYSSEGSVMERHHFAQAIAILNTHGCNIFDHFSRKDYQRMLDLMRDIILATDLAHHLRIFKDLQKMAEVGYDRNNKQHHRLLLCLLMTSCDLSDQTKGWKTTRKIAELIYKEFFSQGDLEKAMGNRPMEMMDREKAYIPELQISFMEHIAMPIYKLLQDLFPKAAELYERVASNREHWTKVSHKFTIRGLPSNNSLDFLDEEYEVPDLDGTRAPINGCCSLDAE
Sodium-dependent noradrenaline transporter (Homo sapiens), sequence (P23975 whole entry): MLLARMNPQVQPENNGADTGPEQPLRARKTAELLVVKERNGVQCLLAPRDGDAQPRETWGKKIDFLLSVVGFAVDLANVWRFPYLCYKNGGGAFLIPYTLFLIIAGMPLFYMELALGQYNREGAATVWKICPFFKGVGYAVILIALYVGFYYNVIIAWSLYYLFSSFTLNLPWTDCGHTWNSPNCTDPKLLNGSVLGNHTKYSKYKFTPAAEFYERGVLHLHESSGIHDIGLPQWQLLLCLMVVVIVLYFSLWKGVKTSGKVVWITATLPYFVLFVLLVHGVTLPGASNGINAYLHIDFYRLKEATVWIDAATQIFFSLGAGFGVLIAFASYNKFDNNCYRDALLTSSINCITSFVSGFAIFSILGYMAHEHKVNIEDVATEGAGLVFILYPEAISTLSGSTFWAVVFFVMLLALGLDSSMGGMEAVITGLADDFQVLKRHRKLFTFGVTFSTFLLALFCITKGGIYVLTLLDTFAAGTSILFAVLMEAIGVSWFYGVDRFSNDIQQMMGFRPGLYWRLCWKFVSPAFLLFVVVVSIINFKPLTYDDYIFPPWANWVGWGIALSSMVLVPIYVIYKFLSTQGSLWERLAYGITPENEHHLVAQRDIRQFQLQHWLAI
Muscarinic acetylcholine receptor M5 (Rattus norvegicus), sequence (P08911 whole entry): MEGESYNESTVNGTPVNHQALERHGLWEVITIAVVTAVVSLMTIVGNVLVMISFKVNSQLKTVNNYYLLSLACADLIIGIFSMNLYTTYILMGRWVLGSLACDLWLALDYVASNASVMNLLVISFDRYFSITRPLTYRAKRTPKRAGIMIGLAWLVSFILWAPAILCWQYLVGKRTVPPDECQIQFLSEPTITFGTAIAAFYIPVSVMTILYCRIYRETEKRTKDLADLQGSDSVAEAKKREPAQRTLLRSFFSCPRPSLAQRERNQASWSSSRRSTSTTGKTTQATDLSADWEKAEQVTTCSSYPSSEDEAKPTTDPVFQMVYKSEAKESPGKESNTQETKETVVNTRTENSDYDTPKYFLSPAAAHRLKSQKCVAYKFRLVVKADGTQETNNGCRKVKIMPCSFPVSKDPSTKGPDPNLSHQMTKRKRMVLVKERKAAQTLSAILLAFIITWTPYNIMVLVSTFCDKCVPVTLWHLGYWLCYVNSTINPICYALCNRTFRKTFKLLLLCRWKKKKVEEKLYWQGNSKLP
Muscarinic acetylcholine receptor M1 (Rattus norvegicus), sequence (P08482 whole entry): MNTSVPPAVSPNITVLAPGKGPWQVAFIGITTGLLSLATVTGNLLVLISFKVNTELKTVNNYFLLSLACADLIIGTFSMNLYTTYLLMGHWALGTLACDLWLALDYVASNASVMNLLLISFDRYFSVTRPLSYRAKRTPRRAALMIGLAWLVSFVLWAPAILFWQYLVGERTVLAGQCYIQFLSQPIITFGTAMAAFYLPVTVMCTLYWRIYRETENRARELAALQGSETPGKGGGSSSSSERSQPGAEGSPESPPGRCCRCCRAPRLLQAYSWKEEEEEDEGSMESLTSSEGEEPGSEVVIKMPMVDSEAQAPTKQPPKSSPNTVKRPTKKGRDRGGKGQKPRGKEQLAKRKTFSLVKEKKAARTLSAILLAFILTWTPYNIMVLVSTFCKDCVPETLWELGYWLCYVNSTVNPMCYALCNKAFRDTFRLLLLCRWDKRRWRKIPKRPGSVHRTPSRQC
Muscarinic acetylcholine receptor M3 (Rattus norvegicus), sequence (P08483 whole entry, looked up): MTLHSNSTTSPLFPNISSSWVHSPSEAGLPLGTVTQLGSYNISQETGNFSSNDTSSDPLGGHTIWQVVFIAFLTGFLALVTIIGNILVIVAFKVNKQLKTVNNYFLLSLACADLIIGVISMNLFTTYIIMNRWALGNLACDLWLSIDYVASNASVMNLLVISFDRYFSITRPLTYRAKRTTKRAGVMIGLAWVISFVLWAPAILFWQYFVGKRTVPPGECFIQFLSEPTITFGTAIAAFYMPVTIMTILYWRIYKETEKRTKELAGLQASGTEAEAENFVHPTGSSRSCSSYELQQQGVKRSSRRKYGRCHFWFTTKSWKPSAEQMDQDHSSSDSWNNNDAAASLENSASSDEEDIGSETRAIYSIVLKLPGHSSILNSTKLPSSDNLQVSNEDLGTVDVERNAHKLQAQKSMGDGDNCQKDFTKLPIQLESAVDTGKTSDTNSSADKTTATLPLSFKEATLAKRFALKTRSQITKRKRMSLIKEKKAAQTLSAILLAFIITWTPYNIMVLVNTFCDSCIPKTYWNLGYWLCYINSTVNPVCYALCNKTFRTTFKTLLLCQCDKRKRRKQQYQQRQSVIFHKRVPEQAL
Muscarinic acetylcholine receptor M4 (Rattus norvegicus), sequence (P08485 whole entry): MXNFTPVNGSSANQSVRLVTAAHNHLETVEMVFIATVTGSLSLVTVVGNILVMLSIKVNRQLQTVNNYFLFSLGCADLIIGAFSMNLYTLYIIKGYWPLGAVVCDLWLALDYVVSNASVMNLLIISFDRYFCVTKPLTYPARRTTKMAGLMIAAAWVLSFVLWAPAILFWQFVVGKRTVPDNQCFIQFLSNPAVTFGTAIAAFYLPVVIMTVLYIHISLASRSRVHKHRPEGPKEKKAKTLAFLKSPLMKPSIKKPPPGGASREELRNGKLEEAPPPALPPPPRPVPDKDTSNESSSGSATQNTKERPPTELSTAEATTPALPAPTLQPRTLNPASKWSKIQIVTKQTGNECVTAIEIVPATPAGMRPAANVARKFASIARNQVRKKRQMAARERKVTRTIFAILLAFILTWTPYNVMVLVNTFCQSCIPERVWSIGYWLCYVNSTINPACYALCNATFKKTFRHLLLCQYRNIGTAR

Row | Structure (SMILES) | Activity (Bos taurus [1]) | Activity [2] | Activity [4] | Activity (Rattus norvegicus [5]) | Activity [6] | Activity [7] | Activity [8] | Activity [9] | Activity (Sus scrofa) | Activity [10] | Activity (Bos taurus [11]) | Activity (Rattus norvegicus [12]) | Activity (Canis lupus familiaris) | Activity [13] | Activity [14] | other results
1 | Nc1ccc(-c2ccoc2)cc1 | inactive | inactive | inactive | inactive | inactive | inactive | inactive | inactive | inactive | inactive | inactive | inactive | inactive | Not Active | inactive | inhibition [3]: 77%
2 | N#Cc1cccc(CC2CCCNC2=O)c1 (centres undefined) | inactive | inactive | inactive | inactive | inactive | inactive | inactive | inactive | inactive | inactive | inactive | inactive | inactive | Not Active | inactive | 
3 | NCc1cccc(CC2CCCNC2=O)c1 (centres undefined) | inactive | inactive | inactive | inactive | inactive | inactive | inactive | inactive | inactive | inactive | inactive | inactive | inactive | Not Active | inactive | inhibition [15]: 50%; inhibition [16]: 50%; inhibition [17]: 50%; inhibition [18]: 50%; inhibition [19]: 50%
4 | OCc1ccccc1C1CCCNC1 (centres undefined) | inactive | inactive | inactive | inactive | inactive | inactive | inactive | inactive | inactive | inactive | inactive | inactive | inactive | Not Active | inactive | inhibition ([20]; concentration not given here): 47%; inhibition (Rattus norvegicus [21]; concentration not given here): 35%; inhibition ([22]; concentration not given here): 62%; inhibition ([23]; concentration not given here): 39%; inhibition (Homo sapiens): 45%
5 | O=C(O)c1ccccc1C1CCCNC1 (centres undefined) | inactive | inactive | inactive | inactive | inactive | inactive | inactive | inactive | inactive | inactive | inactive | inactive | inactive | Not Active | inactive | Activity [24]: inactive; Activity (Rattus norvegicus [25]): inactive; Activity [26]: inactive; Activity [3]: inactive; Activity [15]: inactive; Activity [27]: inactive; Activity [16]: inactive; Activity [20]: inactive; Activity [17]: inactive; Activity (Rattus norvegicus [21]): inactive; Activity [22]: inactive; Activity [23]: inactive; Activity [28]: inactive; Activity (Homo sapiens): inactive; Activity [18]: inactive; Activity [19]: inactive
6 | Nc1cccc(-c2ccoc2)c1 | inactive | inactive | inactive | inactive | inactive | inactive | inactive | inactive | inactive | inactive | inactive | inactive | inactive | Not Active | inactive | inhibition [3]: 80%; inhibition (Homo sapiens): 42%
7 | O=C(O)CCC(=O)Nc1ccc(-c2ccoc2)cc1 | inactive | inactive | inactive | inactive | inactive | inactive | inactive | inactive | inactive | inactive | inactive | inactive | inactive | Not Active | inactive | 
8 | N#Cc1cccc(CN2CCCCC2=O)c1 | inactive | inactive | inactive | inactive | inactive | inactive | inactive | inactive | inactive | inactive | inactive | inactive | inactive | Not Active | inactive | 
